Data on 1 compound can be found in US11666640B2, “Glucose oxidase compositions as a neonate anticonvulsant” (PENN STATE RESEARCH FOUNDATION, priority 2018, dated 2023).

Entries after “also recorded” stand apart in the source; their conditions may differ.

Test [1] relates to GABAA-R reversal potential (EGABA). Put plainly: Gramicidin-perforated whole-cell recording of GABAA-R reversal potential (EGABA) in CA3 pyramidal neurons. The class given is cell-based, mouse. The protocol:
To further test this idea, the GABAA-R reversal potential (EGABA), which governs GABA excitatory versus inhibitory function, was directly measured using gramicidin-perforated whole-cell recordings in neonatal mouse brain slices (e.g., P8-P9). As expected, epileptiform activity induced a large depolarizing shift in EGABA after treating hippocampal slices with 0 Mg^2+ aCSF for 1 h (aCSF: −59.2±2.0 mV, n=13; 0 Mg^2+: −48.2±1.1 mV, n=10). FIG. 16D. Treatment with bumetanide (Bum, 10 μM), a specific blocker for NKCC1 at low concentrations, induced a hyperpolarizing shift in EGABA (blue line) as compared to a control EGABA (dashed line). […]. […] Kaila et al., “Cation-chloride cotransporters in neuronal development, plasticity and disease” Nature Reviews. Neuroscience 15:637-654 (2014); Dzhala et al., “NKCC1 transporter facilitates seizures in the developing brain” Nature Medicine 11:1205-1213 (2005); and Loscher et al., “Cation-chloride cotransporters NKCC1 and KCC2 as potential targets for novel antiepileptic and antiepileptogenic treatments” Neuropharmacology 69:62-74 (2013). […] FIG. 16E, yellow line; Bum, −68.0±1.7 mV (n=9); 0 Mg^2++Bum, −50.2±1.4 mV (n=9); (p<0.002).

Test [2] relates to PTZ-induced epileptic seizures. Put plainly: PTZ-induced epileptiform activity in adult mice, EEG recording. The class given is in vivo, mouse. To be noted: PTZ 50 mg/kg i.p. The protocol:
To test the in vivo anti-epilepsy effects of gluconate in neonatal and adult rodents, P8-12 Sprague-Dawley rats or 2-month old male C57BL/6 mice were deeply anesthetized with pentobarbital sodium (50 mg/kg for neonatal rat and 100 mg/kg for adult mice, intraperitoneal injection). Two stainless steel screws (1 mm in diameter) were inserted in the skull above the cortex as EEG recording electrodes, one ground electrode as well as one reference electrode were located +1.8 mm anterior to bregma, ±0.5 mm lateral to the midline, and 1 mm below the cortical surface. All electrodes were attached to a micro-connector and fixed onto the skull with dental cement. After surgery, neonatal rats were returned to their mothers and allowed to recover for 2 days prior to subsequent EEG recording. The adult mice were single housed in order to prevent damage of the implanted electrodes and allowed to recover at least 5 days before EEG recording.
The baseline of EEG was recorded for 0.5-1 hr to allow the animal to adapt to the environment. Kainic acid (2 mg/kg) was administered intraperitoneally (i.p.) for neonatal epilepsy induction. D-gluconic acid sodium salt (2 g/kg) or 0.9% saline was injected i.p. 10 min after KA administration. […] Epileptiform activity was monitored for 1 hr after PTZ injection. […]
Adult EEG signal were analyzed by spike 2 software (an analysis program for CED 1401, Cambridge, UK). […]

Another test addresses T1, CLC-3 channels (Rattus norvegicus, UniProt P51792).
T1 construct: host or cells: HEK293T
T1 sequence (P51792 1-760 isoform P51792-2): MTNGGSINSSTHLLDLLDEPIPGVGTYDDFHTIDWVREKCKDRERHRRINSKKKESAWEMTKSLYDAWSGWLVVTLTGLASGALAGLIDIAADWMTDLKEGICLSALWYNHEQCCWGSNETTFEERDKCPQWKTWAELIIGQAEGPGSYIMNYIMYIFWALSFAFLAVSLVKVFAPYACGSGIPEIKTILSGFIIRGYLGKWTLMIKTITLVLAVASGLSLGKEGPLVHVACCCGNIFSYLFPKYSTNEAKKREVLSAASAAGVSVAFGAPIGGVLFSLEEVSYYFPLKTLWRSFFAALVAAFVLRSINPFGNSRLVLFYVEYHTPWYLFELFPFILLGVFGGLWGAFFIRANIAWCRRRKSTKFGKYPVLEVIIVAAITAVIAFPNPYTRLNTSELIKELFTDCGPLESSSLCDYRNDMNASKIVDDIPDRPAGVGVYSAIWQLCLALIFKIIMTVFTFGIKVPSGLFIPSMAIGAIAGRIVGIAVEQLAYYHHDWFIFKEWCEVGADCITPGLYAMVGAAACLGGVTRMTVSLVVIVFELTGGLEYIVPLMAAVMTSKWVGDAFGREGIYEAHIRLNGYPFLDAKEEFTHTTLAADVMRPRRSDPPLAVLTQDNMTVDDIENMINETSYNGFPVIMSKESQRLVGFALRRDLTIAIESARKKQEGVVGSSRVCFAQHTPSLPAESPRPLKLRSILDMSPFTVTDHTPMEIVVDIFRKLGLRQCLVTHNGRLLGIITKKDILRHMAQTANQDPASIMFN
Nature of the test: Whole-cell Cl− currents in CLC-3-transfected HEK293T cells. The class given is cell-based.

For test [3], the system named is GABA-induced neuronal activity. Put plainly: Cell-attached recording of spike firing elicited by isoguvacine in CA3 pyramidal neurons. The class given is cell-based, mouse. To be noted: P8-9, isoguvacine 10 μM, 30 s. The method, then:
Besides EGABA, the effects of different drugs on GABA-induced neuronal activity during epileptogenesis were investigated in neonatal animals (e.g., P8-9). To accurately measure GABA-induced neuronal activity, cell-attached recordings monitored spike firing elicited by local application of the GABAA-R agonist isoguvacine (10 μM, 30 s). Tyzio et al., “Maternal oxytocin triggers a transient inhibitory switch in GABA signaling in the fetal brain during delivery” Science 314:1788-1792 (2006). […] FIG. 16K, control, (n=32). […] FIG. 16K, 0 Mg^2+ (n=19). […] FIG. 16K; 0 Mg^2++Bum (n=19); and 0 Mg^2++VU (n=21). […] FIG. 16K; 0 Mg^2++NaGcA (n=18).

For the compound `O=C([O-])[C@H](O)[C@@H](O)[C@H](O)[C@H](O)CO.[Na+]` [NaGcA, D-gluconic acid sodium salt], in test [1] (CLC-3 KO mice, application of NaGcA), the “EGABA in 0 Mg2+ aCSF in CLC-3 KO mice” value was −56.6±2.4 mV. In addition, the “positive EGABA shift induced by 0 Mg2+ aCSF” value in test [1] (neonatal CA3 neurons) is “completely abolishes”. Further, in test [1] (neonatal P8-P9, 0 Mg2+ aCSF, bumetanide 10 μM, VU0240551 10 μM, NaGcA 20 mM), the “EGABA in 0 Mg2+ aCSF” value was −59.3±1.7 mV. In test [1] (neonatal P8-P9, bumetanide 10 μM, VU0240551 10 μM, NaGcA 20 mM), the “EGABA in normal aCSF” value is given as −60.3±0.9 mV. The “epileptic burst activity induced by PTZ” value in test [2] was “did not suppress the epileptic burst activity as effective”. Besides, the “latency of epileptiform spikes or bursts induced by PTZ” value in test [2] (NaGcA 1 and 2 g/kg, sodium salt) is “prolonging the latency; also recorded: prolonged”. For the same compound, the “CLC-3-mediated Cl− currents” value at CLC-3 channels (20 mM NaGcA, at +90 mV) was 544±59 pA. Also, the “CLC-3 channel-mediated Cl− currents (inhibition)” value at CLC-3 channels (20 mM NaGcA, sodium salt) is given as “significantly inhibited; also recorded: significantly reduced”. Besides, at CLC-3 channels (after washout, at +90 mV), the “CLC-3-mediated Cl− currents after washout of NaGcA” value is listed as 925±124 pA. Further, the “spike activity elicited by isoguvacine after 0 Mg2+ treatment” value in test [3] was “essentially abolished”.
